Measurements as given in patent publication US7482328B2, “Antimicrobial polypeptide and utilization thereof” (Toagosei Co., Ltd., priority 2002, dated 2009).
Residues, ends and D or L forms follow the SMILES beside them. No end group written: not given here.

What was measured:
Type in all cases: cell-based
E. coli = test system: E. coli
Method: (§1) Regarding the antimicrobial polypeptide of the present invention (samples 1 to 33) and the polypeptides of comparative samples 1 to 3, the antimicrobial activities (minimum inhibitory concentration: MIC) with respect to gram-negative bacteria (E. coli) and gram-positive bacteria (S. aureus) were determined by a liquid medium dilution technique using a 96-well microplate.
(§2) More specifically, liquid bouillon media (“NUTRIENT BROTH Dehydraged” manufactured by DIFCO) in a polypeptide concentration of 500, 250, 125, 62.5, 31.3, 15.6, 7.8, 3.9, 1.9, 1.0 and 0.5 μM were prepared, and filled in a 96-well microplate. On the other hand, bacteria suspension (about 2×10^6 cells/mL) that had been stationary cultured at 37° C. for 18 hours with LB Broth, Lennox (manufactured by DIFCO) were inoculated to each well of the 96-well microplate in an equal amount to that of the pharmaceutical solution (the above-described polypeptide-containing bouillon medium). After inoculation, culture was started in an incubator at 37° C., and it was examined based on the turbidity after 24 hours and 48 hours whether or not bacteria are present. The minimum of the polypeptide concentrations in which no increase in the turbidity caused by bacteria at the time of measurement was observed was defined as MIC in this example.
(§3) The unit of MIC in Table 2 is μM. […]

S. aureus = test system: S. aureus
Method: as §1, §2, §3

[1] = test system: gram-negative bacteria (E. coli) and gram-positive bacteria (S. aureus); assay: antimicrobial test of Example 2, results summed up in words; settings: summary of Table 2, E. coli and S. aureus
Method: as §1, §2

Row | Molecule | antimicrobial activity (MIC) E. coli after 24h (E. coli) | antimicrobial activity (MIC) E. coli after 48h (E. coli) | antimicrobial activity (MIC) S. aureus after 24h (S. aureus) | antimicrobial activity (MIC) S. aureus after 48h (S. aureus) | antimicrobial activities (in words) [1]
1 | RKKKRKVRKKKRKVRKKKRKVRKKKRKV [sample 22] | 1.9 µM | 1.9 µM | 1.0 µM | 1.0 µM | –
2 | PRRRK-NH2 [sample 23, PRRRK] | 31.3 µM | 31.3 µM | 7.8 µM | 15.6 µM | –
3 | RIRKKLR [sample 3, RIRKKLR] | 62.5 µM | 62.5 µM | 62.5 µM | 62.5 µM | –
4 | LPPLERLTLPKKKRKV [sample 9, LPPLERLTLPKKKRKV] | 31.3 µM | 31.3 µM | 3.9 µM | 3.9 µM | –
5 | N=C(N)NCCC[C@H](NC(=O)[C@H](CCCNC(=N)N)NC(=O)[C@H](CCCNC(=N)N)NC(=O)[C@H](CCC(N)=O)NC(=O)[C@H](CCCNC(=N)N)NC(=O)[C@H](CCCNC(=N)N)NC(=O)[C@H](CCCCN)NC(=O)[C@H](CCCCN)NC(=O)[C@@H](N)CCCNC(=N)N)C(=O)O [sample 5, RKKRRQRRR] | – | – | – | – | particularly high antimicrobial activities
6 | LPPLERLTLRKKKRKV [sample 13, LPPLERLTLRKKKRKV] | 15.6 µM | 15.6 µM | 3.9 µM | 3.9 µM | –
7 | PRRRK [sample 6, PRRRK] | >500 µM | >500 µM | 250.0 µM | 500.0 µM | –
8 | LKRKLQRLKRKLQR [sample 30, LKRKLQRLKRKLQR] | 3.9 µM | 3.9 µM | 3.9 µM | 3.9 µM | –
9 | RQARRNRRRRWR [sample 2, RQARRNRRRRWR] | – | – | – | – | particularly high antimicrobial activities
10 | LPPLERLTL [comparative sample 2, LPPLERLTL, reference compound] | >500 µM | >500 µM | >500 µM | >500 µM | –
11 | RKKKRKVLPPLERLTL [sample 12, RKKKRKVLPPLERLTL] | 15.6 µM | 15.6 µM | 3.9 µM | 3.9 µM | –
12 | RQARRNRRRRWRLPPLERLTLD [sample 10] | – | – | – | – | high antimicrobial activities
13 | LALKLAGLDIRKKKRKV [sample 15, LALKLAGLDIRKKKRKV] | 3.9 µM | 3.9 µM | 1.9 µM | 3.9 µM | high antimicrobial activities
14 | LALKLAGLDI [compound 3, LALKLAGLDI, reference compound] | >500 µM | >500 µM | >500 µM | >500 µM | –
15 | PKKKRKVLPPLERLTLPKKKRKV [sample 11] | 3.9 µM | 3.9 µM | 1.9 µM | 1.9 µM | –
16 | PKKKRKVALGKLALGKL [sample 31, PKKKRKVALGKLALGKL] | 7.8 µM | 7.8 µM | 3.9 µM | 7.8 µM | –
17 | RKKKRKVKRKKKR [sample 29, RKKKRKVKRKKKR] | 1.0 µM | 1.0 µM | 3.9 µM | 7.8 µM | particularly high antimicrobial activities
18 | N=C(N)NCCC[C@H](NC(=O)[C@H](CCCNC(=N)N)NC(=O)[C@H](CCCCN)NC(=O)[C@@H](N)CCCNC(=N)N)C(=O)O [comparative sample 1, RKRR, reference compound] (H-RKRR-OH; N-terminus and C-terminus assumed) | >500 µM | >500 µM | >500 µM | >500 µM | –
19 | RKKKRKVRKKKRKV-NH2 [sample 25, RKKKRKVRKKKRKV-CONH2] | 3.9 µM | 3.9 µM | 1.9 µM | 1.9 µM | –
20 | PKKKRKVLPPLERLTL [sample 8, PKKKRKVLPPLERLTL] | 31.3 µM | 31.3 µM | 3.9 µM | 3.9 µM | –
21 | CC(C)[C@H](NC(=O)[C@H](CCCCN)NC(=O)[C@H](CCCNC(=N)N)NC(=O)[C@H](CCCCN)NC(=O)[C@H](CCCCN)NC(=O)[C@H](CCCCN)NC(=O)[C@@H]1CCCN1)C(=O)O [sample 1, PKKKRKV] | 62.5 µM | >500 µM | 62.5 µM | 125.0 µM | –
22 | PKKKRRV [sample 26, PKKKRRV] | 62.5 µM | 500.0 µM | 125.0 µM | 125.0 µM | –
23 | LKRKLQR [sample 27, LKRKLQR] | 500.0 µM | >500 µM | 125.0 µM | 125.0 µM | –
24 | MRKKKRKVRKKKRKV [sample 33, MRKKKRKVRKKKRKV] | 3.9 µM | 3.9 µM | 1.9 µM | 1.9 µM | –
25 | RKKKRKV-OH [sample 7, RKKKRKV] | 62.5 µM | 500.0 µM | 15.6 µM | 31.3 µM | –
26 | PPRKKRTVV [sample 4, PPRKKRTVV] | 250.0 µM | >500 µM | 125.0 µM | 125.0 µM | –
27 | RKKKRKVRKKKRKVRKKKRKV [sample 21] | 1.9 µM | 1.9 µM | 0.5 µM | 0.5 µM | –
28 | PKKKRKVPPRKKRTVV [sample 19, PKKKRKVPPRKKRTVV] | 3.9 µM | 3.9 µM | 7.8 µM | 7.8 µM | –
29 | PRRRKPRRRK [sample 18, PRRRKPRRRK] | 3.9 µM | 3.9 µM | 7.8 µM | 7.8 µM | –
